Experimental data as given in publication PMC8626090, “A conserved neuropeptide system links head and body motor circuits to enable adaptive behavior” (eLife, 2021).
Like-named read-outs stand apart in the source and are kept apart here. No end group written: not given here.

Columns and labels:
[1] = tested on: SMD neurons, Caenorhabditis elegans; settings: in vivo
CKR-1 = molecular target: T1, CKR-1 (Caenorhabditis elegans, UniProt P91487); experiment: GPCR activation assay, CKR-1 (aequorin bioluminescence calcium, CHO-K1 Gα16); format: cell-based; settings: for ratio of total calcium response: in vitro controls, CKR-1
T1 sequence (P91487 1-421): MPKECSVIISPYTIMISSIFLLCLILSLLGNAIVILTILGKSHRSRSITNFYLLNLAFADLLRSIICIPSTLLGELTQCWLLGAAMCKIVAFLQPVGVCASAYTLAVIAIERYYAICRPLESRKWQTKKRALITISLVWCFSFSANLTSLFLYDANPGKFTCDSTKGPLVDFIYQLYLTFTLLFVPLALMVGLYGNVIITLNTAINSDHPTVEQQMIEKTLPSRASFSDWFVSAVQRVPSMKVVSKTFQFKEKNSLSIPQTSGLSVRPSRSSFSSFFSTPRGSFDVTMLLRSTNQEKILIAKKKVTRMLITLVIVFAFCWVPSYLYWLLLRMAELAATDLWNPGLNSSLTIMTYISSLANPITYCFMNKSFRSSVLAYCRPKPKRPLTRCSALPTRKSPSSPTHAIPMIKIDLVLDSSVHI
Procedure: (§1) To obtain direct evidence for NLP-12 activation of CKR-1, we used an in vitro bioluminescence-based approach. CKR-1 was expressed in Chinese hamster ovarian (CHO) cells stably expressing the promiscuous G-protein alpha subunit Gα16 and a bioluminescent calcium indicator, aequorin ([Caers et al., 2014]). The NLP-12 precursor gives rise to two distinct mature peptides, NLP-12–1 and NLP-12–2.
(§2) The GPCR activation assay was performed as previously described ([Caers et al., 2014]; [Peymen et al., 2019]; [Van Sinay et al., 2017]). Briefly, CHO-K1 cells stably expressing the luminescent Ca^2+ indicator aequorin and the promiscuous Gα16 protein (ES-000-A24 cell line, PerkinElmer) were transiently transfected with ckr-1/pcDNA3.1, ckr-2/pcDNA3.1, or empty pcDNA3.1 vector. Cells were transfected with Lipofectamine LTX and Plus reagent (Invitrogen) at 60–80% confluency and grown overnight at 37°C. After 24 hr, they were shifted to 28°C overnight. On the day of the assay, transfected cells were collected in bovine serum albumin (BSA) medium (DMEM/F12 without phenol red with L-glutamine and 15 mM HEPES, Gibco, supplemented with 0.1% BSA), at a density of 5 million cells per ml, and loaded with 5 µM coelenterazine h (Invitrogen) for 4 hr at room temperature. Compound plates containing synthetic peptides in DMEM/BSA were placed in a MicroBeta LumiJet luminometer (PerkinElmer). After loading, the transfected cells were added at a density of 25,000 cells/well, and luminescence was measured for 30 s at a wavelength of 469 nm. After 30 s, 0.1% triton X-100 (Merck) was added to lyse the cells, resulting in a maximal Ca^2+ response that was measured for 30 s. To constitute concentration-response curves of NLP-12 peptides, peptide concentrations ranging from 1 pM to 10 µM were tested in triplicate on 2 independent days.

[2] = tested on: CHO cells transfected with an empty pcDNA3.1 vector; experiment: GPCR activation assay, control cells transfected with empty pcDNA3.1 vector; format: cell-based, Chinese hamster; settings: in vitro controls
Procedure: as §1, §2

CKR-2 = CKR-2 (Caenorhabditis elegans, UniProt M1Z894); experiment: GPCR activation assay, CKR-2 (aequorin bioluminescence calcium, CHO-K1 Gα16); format: cell-based; settings: for ratio of total calcium response: in vitro controls, CKR-2
Sequence of CKR-2 (M1Z894 entry or part of it): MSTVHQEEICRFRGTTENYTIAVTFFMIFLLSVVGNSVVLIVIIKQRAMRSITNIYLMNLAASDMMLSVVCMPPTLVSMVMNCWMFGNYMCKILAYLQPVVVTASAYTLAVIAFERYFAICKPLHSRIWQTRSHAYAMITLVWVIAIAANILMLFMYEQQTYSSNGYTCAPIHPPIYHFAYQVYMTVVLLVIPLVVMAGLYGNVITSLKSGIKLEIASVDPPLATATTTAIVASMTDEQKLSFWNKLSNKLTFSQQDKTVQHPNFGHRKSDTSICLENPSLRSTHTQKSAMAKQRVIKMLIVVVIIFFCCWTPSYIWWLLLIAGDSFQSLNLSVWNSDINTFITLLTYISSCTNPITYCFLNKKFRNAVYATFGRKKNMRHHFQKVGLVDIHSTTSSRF
Procedure: as §1, §2

[3] = CHO-K1 cells, aequorin/Gα16, 1 pM to 10 µM, triplicate on 2 independent days (n=6), luminescence 469 nm, 30 s, read-out: EC50 (CKR-1 activation, calcium response)
[4] = concentration-response curve fit, n=6, read-out: 95% confidence interval (EC50, CKR-1 activation)
[5] = read-out: 95% confidence interval (EC50, CKR-2 activation), concentration-response curve fit, n=6
[6] = read-out: EC50 (CKR-2 activation, calcium response), CHO-K1 cells, aequorin/Gα16, 1 pM to 10 µM, triplicate on 2 independent days (n=6), luminescence 469 nm, 30 s

NCCc1c[nH]cn1 [histamine]
reorientations during food searching upon SMD silencing [1]: reduced reorientations with SMD silencing in transgenics

Nc1ncnc2c1ncn2[C@@H]1O[C@H](COP(=O)(O)OP(=O)(O)OP(=O)(O)O)[C@@H](O)[C@H]1O [ATP]
ratio of total calcium response (CKR-1; replicate 1): 0.6901 | ratio of total calcium response (CKR-1; replicate 2): 0.479 | ratio of total calcium response (CKR-1; replicate 3): 0.5419 | ratio of total calcium response (CKR-1; replicate 4): 0.7243 | ratio of total calcium response (CKR-1; replicate 5): 0.7237 | ratio of total calcium response ([2]; replicate 1): 0.9381 | ratio of total calcium response ([2]; replicate 2): 0.6003 | ratio of total calcium response ([2]; replicate 3): 0.6268 | ratio of total calcium response ([2]; replicate 4): 0.814 | ratio of total calcium response ([2]; replicate 5): 0.8225 | ratio of total calcium response (CKR-2; replicate 1): 0.7753 | ratio of total calcium response (CKR-2; replicate 2): 0.8315 | ratio of total calcium response (CKR-2; replicate 3): 0.845 | ratio of total calcium response (CKR-2; replicate 4): 0.8913 | ratio of total calcium response (CKR-2; replicate 5): 0.8945

DYRPLQF-NH2 [NLP-12-1, DYRPLQFamide]
EC50 (CKR-1; [3]): 3.5 nM | EC50 (CKR-1; [4]): 1.79 to 7.07 nM | EC50 (CKR-2; [5]): 5.16 to 12.5 nM | EC50 (CKR-2; [6]): 8 nM

DGYRPLQF-NH2 [NLP-12-2, DGYRPLQFamide]
EC50 (CKR-1; [3]): 1.9 nM | EC50 (CKR-1; [4]): 0.93 to 3.77 nM | EC50 (CKR-2; [5]): 6.43 to 16.7 nM | EC50 (CKR-2; [6]): 10.2 nM
